Laboratory results reported in patent publication US10195189B2, “2-phenethenyltetrahydro isoquinolines useful as anti-HIV compounds” (priority 2014, dated 2019).

These compounds were tested on HIV-1 NL4-3 viral clone expressing Renilla luciferase (assay: microbe, parasite or virus in culture). Conditions: Human immunodeficiency virus 1, NL43, MT2, 96 h.
Format: cell-based
Experimental: Protocol for MT-2 Spread Assay
The present assay was used to screen candidate antiviral compounds by quantification of virus spread and production over several rounds of infection in vitro. MT-2, a HIV-1 permissive human T-cell line, was seeded in microtiter plates and was simultaneously treated with serially diluted compound and inoculated with a HIV-1 NL4-3 viral clone engineered to express Renilla luciferase in place of Net Following treatment, the culture was incubated for 96 hours. After the incubation, media was collected and used to estimate relative infectivity on the indicator cell line, TZM-bl. Additionally, viral spread was quantified by measuring luciferase activity via a commercially available luciferase substrate. In parallel, MT-2 cells were seeded and inoculated with mock virus in the presence of serially diluted compound. Compound toxicity was quantified 96 hours after treatment with AlamarBlue.
MT-2 (NIH Aids reagent program 237) cells were grown and maintained in an incubator at 37° C. with 5% CO2 using a basal medium of RPMI-1640 supplemented with 10% FBS. Cells were seeded in 100 μl at 2×10^4 cells/well in white walled 96-well microtiter plates. Candidate compounds were 3-fold serially diluted in the appropriate solvent. Solvent without compound was used as a no drug reference. Cells were inoculated at a multiplicity of 0.027 with an HIV-1 NL4-3 virus stock engineered to express Renilla luciferase in place of Net Diluted virus stock was first added to serially diluted compound. Compound and virus were delivered to cells in an equal volume (100 μl) and treated cultures were returned to the incubator for 96 hours. In parallel, plates for cytotoxicity estimates were prepared in the same way except cells were plated in clear walled 96-well microtiter plates and were mock infected.
At 96 hours post infection, 100 μl virus containing culture supernatant was collected from the treated and infected cultures and serially diluted in DMEM supplemented with 10% FBS, 1% sodium pyruvate, and 20 μg/ml DEAE dextran. One day prior, TZM-bl (ATCC PTA-5659) were cultured in basal medium of DMEM supplemented with 10% FBS and 1% sodium pyruvate and seeded at 7.5×10^3 cells/well in black walled 96-well microtiter plates. Diluted virus containing culture supernatant was transferred to TZM-bl cultures and incubated for 48 hours at 37° C. with 5% CO2. Infected TZM-bl cultures were fixed for 5 minutes with a 1% formaldehyde/0.2% gluteraldehyde/PBS solution then washed three times with PBS. Fixed cultures were incubated at 37° C. for 25 minutes with a 200 μg/ml MUG (4-Methylumbelliferyl β-D-[…])/DMEM solution. The reaction was stopped with an equal volume of 1M sodium carbonate and read at 360, 449 nm on fluorescence plate reader (Biotek).
At 96 hours post infection, 100 μl of culture supernatant was removed from the treated and infected cultures and EnduRen live cell substrate (Promega) was added at a final concentration 1.3 μg/ml. Cells were incubated for 1.5 hours at 37° C. with 5% CO2 then read on a luminescence plate reader (Biotek).
For all assays, data was imported into Accelrys Assay Explorer 3.3. In Assay Explorer, % inhibition (antiviral or cytotoxicity) was calculated using the solvent control as a reference by the following equation: 1−(SignalCompound/SignalReference). The % Inhibition and compound concentration data was fitted using the following 4-parameter logistic model (Assay Explorer model 42):
[formula] where X is compound concentration, Y is % inhibition, D is the maximum % Inhibition (constrained to 100%), C is IC50 value or inflection point, B is the hill slope, and A is the minimum % inhibition (constrained to 0%). The IC50 value is reported as the EC50 or CC50 depending on the assay endpoint. EC50 represents the effective concentration at which virus replication is inhibited by 50 percent. CC50 represents the concentration that results in the death of 50 percent of the host cells. […]

SMILES | EC50 [µM]
COc1ccc(/C=C/C2NCCc3cc(OCc4ccccc4)c(OC)cc32)c(C)c1 (stereo not shown) [Example AG, 6-benzyloxy-7-methoxy-1-[(E)-2-(4-methoxy-2-methyl-phenyl)vinyl]-1,2,3,4-tetrahydroisoquinoline] | 0.0771
COc1cc2c(cc1OCc1ccccc1)CCNC2/C=C/c1ccccc1 (stereo not shown) [BI, 6-Benzyloxy-7-methoxy-1-[(E)-styryl]-1,2,3,4-tetrahydroisoquinoline] | 2.2
COc1ccc(/C=C/C2NCCc3cc(OCc4ccccc4)c(OC)cc32)c(OC)c1 (stereo not shown) [AV, 6-Benzyloxy-1-[(E)-2-(2,4-dimethoxyphenyl)vinyl]-7-methoxy-1,2,3,4-tetrahydroisoquinoline] | 0.14
COc1cc2c(cc1OCc1ccccc1)CCNC2/C=C/c1ccc(-n2ccnc2C)cc1 (stereo not shown) [DM, (E)-6-(benzyloxy)-7-methoxy-1-(4-(2-methyl-1H-imidazol-1-yl)styryl)-1,2,3,4-tetrahydroisoquinoline] | 1.52
COc1cc2c(cc1OCc1ccccc1)CCNC2/C=C/c1ccc(OC)c(C(F)(F)F)c1 (stereo not shown) [CY, (E)-6-(Benzyloxy)-7-methoxy-1-(4-methoxy-3-(trifluoromethyl)styryl)-1,2,3,4-tetrahydroisoquinoline] | 0.697
COc1cc2c(cc1OCc1ccccc1)CCNC2/C=C/c1cccc(C(F)(F)F)c1 (stereo not shown) [DB, (E)-6-(benzyloxy)-7-methoxy-1-(3-(trifluoromethyl)styryl)-1,2,3,4-tetrahydroisoquinolin] | 2.67
COc1cc2c(cc1OCc1ccccc1)CCNC2/C=C/c1ccccc1C (stereo not shown) [Example W, 6-benzyloxy-7-methoxy-1-[(E)-2-(o-tolyl)vinyl]-1,2,3,4-tetrahydroisoquinoline] | 0.69
COc1cc2c(cc1OCc1ccccc1)CCNC2/C=C/c1cccc(-c2ncco2)c1 (stereo not shown) [EC, 2-[3-[(E)-2-(6-Benzyloxy-7-methoxy-1,2,3,4-tetrahydroisoquinolin-1-yl)vinyl]phenyl]oxazole] | 0.93
CCCCN1CCc2cc(OCc3ccccc3)c(OC)cc2C1/C=C/c1ccc(OC)c(OCc2ccccc2)c1 (stereo not shown) [Example G, 6-Benzyloxy-1-[(E)-2-(3-benzyloxy-4-methoxy-phenyl)vinyl]-2-butyl-7-methoxy-3,4-dihydro-1H-isoquinoline] | 5
COc1cc2c(cc1OCc1ccccc1)CCNC2/C=C/c1ccc(OC(F)(F)F)cc1C (stereo not shown) [Example AJ, (E)-6-(benzyloxy)-7-methoxy-1-(2-methyl-4-(trifluoromethoxy)styryl)-1,2,3,4-tetrahydroisoquinoline] | 2.74
COc1cc(C)c(/C=C/C2c3cc(OC)c(OCc4ccccc4)cc3CCN2C)cc1OCc1ccccc1 (stereo not shown) [Example E, 6-Benzyloxy-1-[(E)-2-(5-benzyloxy-4-methoxy-2-methyl-phenyl)vinyl]-7-methoxy-2-methyl-3,4-dihydro-1H-isoquinoline] | 8.47
COc1ccc(/C=C/C2NCCc3cc(OCc4ccccc4)c(OC)cc32)cc1F (stereo not shown) [BF] | 1.02
CCCCOc1ccc(/C=C/C2NCCc3cc(OCc4ccccc4)c(OC)cc32)cc1OC (stereo not shown) [BD, 6-Benzyloxy-1-[(E)-2-(4-butoxy-3-methoxy-phenyl)vinyl]-7-methoxy-1,2,3,4-tetrahydroisoquinoline] | 0.408
COC(=O)N1CCc2cc(OCc3ccccc3)c(OC)cc2C1/C=C/c1ccc(OC)c(OCc2ccccc2)c1 (stereo not shown) [Example L, Methyl 6-benzyloxy-1-[(E)-2-(3-benzyloxy-4-methoxy-phenyl)vinyl]-7-methoxy-3,4-dihydro-1H-isoquinoline-2-carboxylate] | 2.81
COc1cc2c(cc1OCc1ccccc1)CCNC2/C=C/c1ccc(N2CCCCC2)cc1 (stereo not shown) [EA, 6-Benzyloxy-7-methoxy-1-[(E)-2-[4-(1-piperidyl)phenyl]vinyl]-1,2,3,4-tetrahydroisoquinoline] | 2.1
COc1cc2c(cc1OCc1ccccc1)CCNC2/C=C/c1ccc(S(C)(=O)=O)cc1 (stereo not shown) [BZ, 6-Benzyloxy-7-methoxy-1-[(E)-2-(4-methylsulfonylphenyl)vinyl]-1,2,3,4-tetrahydroisoquinoline] | 1
